Assay results reported in PubChem BioAssay AID463199 (Broad Institute, 2010).
Active and inactive are the calls of the source.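 The calls were made as follows: active = AC50, the dose giving half-maximal effect, exceeds a fixed cutoff for a compound that rescues yeast growth under heat; inactive = the rest, inconclusive results apart.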

Test system: S. cerevisiae Burl-1 ts mutant growth, BacTiter-Glo, 38.5C 24 h
Experiment: restored growth of temperature-sensitive Burl-1 yeast – whole organism, S. cerevisiae, Burl-1 ts mutant, luminescence, counter-screen for SUMOylation pathway inhibitor project, dose response (AID 463199)

Row | Structure (SMILES) | AC50
1 | COC(=O)C1(Cc2ccc(O)cc2)OC(=O)C(O)=C1c1ccc(O)cc1 (stereo not drawn) | > 42 µM (inactive)
2 | COc1ccccc1/C=C/C(=O)c1c2c(c(C)[nH]c1=O)CCCC2 | > 42 µM (inactive)
3 | Cc1ccc(NC(=O)CN2CCN(CCN=CC3=C(O)CC(C)(C)CC3=O)CC2)cc1 | > 42 µM (inactive)
4 | CC(C)(C)n1nnnc1C(c1ccc(Cl)cc1)N(Cc1cccnc1)Cc1ccco1 (stereo not drawn) | > 42 µM (inactive)
5 | CC(C)N(C(=S)Nc1cccc(S(=O)(=O)N(C)C)c1)c1ccccc1 | > 42 µM (inactive)
6 | C=CC[N+]1(CC#Cc2ccccc2)CCCC1 | > 42 µM (inactive)
7 | CCc1ccc(-c2nc(SCC(=O)N3CCOCC3)n[nH]2)cc1 | > 42 µM (inactive)
8 | Cc1n[nH]c(C)c1S(=O)(=O)N(CC(=O)NC1CCCC1)c1ccc(C(C)C)cc1 | 38.7 µM
9 | CC1(C)CC(=O)C2=C(C1)OC(N)=C(C#N)C21C(=O)N(CN2CCOCC2)c2ccccc21 (stereo not drawn) | > 42 µM (inactive)
10 | CN(CP(=O)(O)C(O)c1ccccc1)S(C)(=O)=O (stereo not drawn) | > 42 µM (inactive)
11 | O=C(O)C1CCCCC1C(=O)Nc1ccc(S(=O)(=O)N2CCCC2)cc1 (stereo not drawn) | > 42 µM (inactive)
12 | Cc1ccccc1-c1nc2ccc(Cl)cc2c(=O)n1O | > 42 µM (inactive)
13 | CCCCCCC(C)n1[nH]c(=O)c2c(C)cc(=O)[nH]c21 (stereo not drawn) | > 42 µM (inactive)
14 | CC(C)Sc1ccc(C(=O)Nc2ccc(F)cc2F)cn1 | > 42 µM (inactive)
15 | COC(=O)[C@@]12CCCCN1[C@H](c1ccc(-c3cccc(Cl)c3)c(OC)c1)[C@H]1C(=O)N(C)C(=O)[C@H]12 | > 42 µM (inactive)
16 | Cn1c(SCC(=O)N/N=C/c2ccc([N+](=O)[O-])s2)nnc1-c1ccc(Cl)cc1 | > 42 µM (inactive)
17 | O=Cc1cn(Cc2ccccc2F)c2ccccc12 | > 42 µM (inactive)
18 | C=CC(=O)NC1CC2CCC1(C)C2(C)C (stereo not drawn) | > 42 µM (inactive)
19 | c1ccc(-c2cc3ccccc3cn2)cc1 | > 42 µM (inactive)
20 | CCC(C)[C@H](NC(=O)Nc1ccc(S(N)(=O)=O)cc1)C(=O)OC (stereo partly drawn) | > 42 µM (inactive)
21 | COc1ccc(C)cc1S(=O)(=O)N1CCC(C(=O)NCCc2ccccc2)CC1 | > 42 µM (inactive)
22 | O=C(O)c1cc(S(=O)(=O)Nc2ccc(OCc3ccccc3)cc2)ccc1Br | > 42 µM (inactive)
23 | O=C(Cc1ccc(Cl)cc1)NC(=S)Nc1ccccc1N1CCOCC1 | > 42 µM (inactive)
24 | CCc1cc2c(=O)c(-c3nc4ccccc4n3C)c(C)oc2c(CN2CCOCC2)c1O | 22.7 µM
25 | CC(C)n1c(CN(C)c2ccccc2)nc2ccccc21 | > 42 µM (inactive)

Row | Structure (SMILES) | AC50
26 | O=C1c2ccccc2NC(c2ccccc2O)N1O (stereo not drawn) | > 42 µM (inactive)
27 | COc1cc(NC(=O)c2ccccc2F)c(OC)cc1NC(=O)CN1CCCCC1 | > 42 µM (inactive)
28 | O=C(/C=C/c1ccc(Cl)cc1)NCc1ccncc1 | 42 µM
29 | O=C(COC(=O)C1COc2ccccc2O1)NC1CCS(=O)(=O)C1 (stereo not drawn) | > 42 µM (inactive)
30 | CCOC(=O)C1(Cc2cccc(OC)c2)CCCN(S(=O)(=O)c2cccnc2)C1 (stereo not drawn) | > 42 µM (inactive)
31 | CCOc1ccc(C)cc1S(=O)(=O)n1nc(C)cc1C | > 42 µM (inactive)
32 | CCNc1ccc(S(=O)(=O)N(C)C)cc1NCC(=O)Nc1ccccc1Br | > 42 µM (inactive)
33 | CCNC(=O)/C(C#N)=C/c1c(N2CCCCCC2)nc2ccccn2c1=O | > 42 µM (inactive)
34 | COc1ccc(NC(=O)CN(c2ccc(C(C)C)cc2)S(=O)(=O)c2c(C)noc2C)cc1OC | > 42 µM (inactive)
35 | C/C=C\C=C/C(=O)Nc1cccc(C2=NOC3(C2)C[C@@H](C(N)=O)N(C(=O)c2ccccc2)C3)c1 (stereo partly drawn) | > 42 µM (inactive)
36 | COc1cccc(-n2c(Cc3cc(=O)[nH]c(=O)[nH]3)nnc2SCc2cccnc2)c1 | > 42 µM (inactive)
37 | c1ccc2[nH]c(CSc3nccs3)nc2c1 | > 42 µM (inactive)
38 | COc1cccc(-n2c(SCC(=O)NC3CCCCC3)nc3n[nH]c(C)c3c2=N)c1 | > 42 µM (inactive)
39 | O=C(CN1CCc2ccccc21)NN1CC(=O)N(c2ccc(Cl)cc2)CC1=O | > 42 µM (inactive)
40 | O=C(Nc1cccc(O)c1)C(Cc1ccccc1)N1C(=O)c2cccc3cccc(c23)C1=O (stereo not drawn) | > 42 µM (inactive)
41 | CN(C)S(=O)(=O)c1ccc(C(=O)/C=C/c2cccnc2)cc1 | > 42 µM (inactive)
42 | Cc1ccc(C(C[N+](=O)[O-])c2c(C)[nH]n(-c3ccccc3)c2=O)cc1 (stereo not drawn) | 39.7 µM
43 | CCCc1nc2c(nnn2Cc2ccccc2F)c(=O)[nH]1 | > 42 µM (inactive)
44 | O=C(NNC(=O)c1ccc(-n2cncn2)c([N+](=O)[O-])c1)c1ccc(Cl)cc1 | > 42 µM (inactive)
45 | O=S(=O)(Nc1ccc(-c2nc3cccnc3s2)cc1)c1cc(F)ccc1F | > 42 µM (inactive)
46 | CCC(C)NCCCCOc1cc(C)cc(C(C)C)c1 (stereo not drawn) | > 42 µM (inactive)
47 | O=C1CCC(/C=C/c2ccccc2)=NN1Cc1ccc(Cl)c(Cl)c1 | > 42 µM (inactive)
48 | COc1ccccc1CNc1ncnc2c1nnn2Cc1ccccc1 | > 42 µM (inactive)
49 | Nc1cccc2c1C(=O)N(c1ccccc1)C2=O | > 42 µM (inactive)
50 | FC(F)(F)c1nnc(-c2ccccc2)nc1Oc1ccc(Cl)cc1Cl | > 42 µM (inactive)

Row | Structure (SMILES) | AC50
51 | Cc1ccc(NC(=O)N[C@H](C(=O)O)C(C)C)c(C)c1 | > 42 µM (inactive)
52 | Cc1c(Cl)c([N+](=O)[O-])nn1CC(=O)NC12CC3CC(CC(C3)C1)C2 | > 42 µM (inactive)
53 | Cc1cc(C)cc(OC(=O)CS(=O)c2ccc(C(F)(F)F)cc2[N+](=O)[O-])c1 (stereo not drawn) | > 42 µM (inactive)
54 | COc1ccccc1N1CCN(C(=O)c2ccc(-c3ccccc3)cc2)CC1 | > 42 µM (inactive)
55 | CCOc1ccc(NC(=O)CN(C)C(=O)c2ccc(OCc3ccccc3)c(OC)c2)cc1OCC | > 42 µM (inactive)
56 | O=C(CSc1nnnn1C1CC2CCC1C2)Nc1ccnc2ccccc12 (stereo not drawn) | > 42 µM (inactive)
57 | COC(=O)Oc1ccc(/C=N/NS(=O)(=O)c2ccccc2)cc1OC | > 42 µM (inactive)
58 | COc1cc(S(=O)(=O)N2CCN(c3ccccc3)CC2)ccc1F | > 42 µM (inactive)
59 | COc1ccc(NC2CCCN(C(=O)CCc3scnc3C)C2)cc1 (stereo not drawn) | > 42 µM (inactive)
60 | COc1ccc(CN2CC(=O)N(c3ccccc3C)C2=S)cc1OC | > 42 µM (inactive)
61 | Cc1cc(C)c2nc(-c3cccnc3)cc(C(=O)Nc3ccc(S(=O)(=O)Nc4onc(C)c4C)cc3)c2c1 | > 42 µM (inactive)
62 | O=C(Nc1ccc2nc(-c3ccc4nc[nH]c4c3)[nH]c2c1)c1cccs1 | > 42 µM (inactive)
63 | COc1ccccc1CNC(=O)CN(c1ccc(C)cc1)S(=O)(=O)c1c(C)n[nH]c1C | > 42 µM (inactive)
64 | Cc1ccnc(NC(=O)c2ccc(Br)s2)c1 | > 42 µM (inactive)
65 | COc1cccc(/C=N/n2cnc3ccccc32)c1OC | > 42 µM (inactive)
66 | COc1ccc(-c2nc3c(c(SCC(=O)N4CCOCC4)n2)Cc2c(CO)cnc(C)c2O3)cc1 | > 42 µM (inactive)
67 | Cc1nc2sc(C(c3ccco3)N3CCOCC3)c(O)n2n1 (stereo not drawn) | > 42 µM (inactive)
68 | CCC(C)N1C(=O)CN(C2CCCCCC2)C(=O)C1c1ccccc1F (stereo not drawn) | > 42 µM (inactive)
69 | COCCn1c(SCC(=O)NCc2cccs2)nnc1-c1ccc(OC)cc1 | > 42 µM (inactive)
70 | CCS(=O)(=O)c1nc(S(=O)(=O)c2ccc(Cl)cc2)c(N2CCc3ccccc3C2)s1 | > 42 µM (inactive)
71 | CCCNC(=O)Cn1nc(C)n2c(cc3cc(F)ccc32)c1=O | > 42 µM (inactive)
72 | CCNC(=S)NNC(=O)c1ccc(=O)n(Cc2ccccc2)c1 | > 42 µM (inactive)
73 | CC(=O)C(C(c1ccccc1)c1c[nH]c2ccccc12)[N+](=O)[O-] (stereo not drawn) | > 42 µM (inactive)
74 | CCCN(CC1CC1)C(=O)COc1ccccc1C(=O)NCc1ccccc1 | > 42 µM (inactive)
75 | COc1ccccc1CNC(=O)CCC(=O)Nc1nnc(C(C)C)s1 | > 42 µM (inactive)

Row | Structure (SMILES) | AC50
76 | O=C(O)c1cccc(N2C(=O)C3C4C=CC(C4=C(c4ccccc4)c4ccccc4)C3C2=O)c1 (stereo not drawn) | > 42 µM (inactive)
77 | CCN(CC)CCCN1C(=O)C(=O)/C(=C(/O)c2ccccc2)C1c1cc(OC)ccc1OC (stereo not drawn) | > 42 µM (inactive)
78 | Cc1cccc(N2CCN(CCCNC(=O)c3ccc(NC(=O)C4=CSCCO4)cc3)CC2C)c1 (stereo not drawn) | > 42 µM (inactive)
79 | COc1ccc(CN(C)C(=O)c2sccc2-c2ccccc2)c(OC)c1 | > 42 µM (inactive)
80 | CC1(C)C2CC=C(/C=N/NC(=S)Nc3cccnc3)C1C2 (stereo not drawn) | > 42 µM (inactive)
81 | Cc1cccc(C)c1NS(=O)(=O)c1ccc(OCCNS(C)(=O)=O)cc1 | > 42 µM (inactive)
82 | O=c1[nH]cnc2sc3c(c12)CCC3 | > 42 µM (inactive)
83 | CC(N=C(NC#N)Nc1ccncc1)C(C)(C)C (stereo not drawn) | > 42 µM (inactive)
84 | Cc1nn(C)c(C)c1-c1c(C#N)c(N)nc2c1CCCCCC2 | > 42 µM (inactive)
85 | COc1ccc2c(C(=O)CN3CC(C)OC(C)C3)c[nH]c2c1 (stereo not drawn) | > 42 µM (inactive)
86 | Cn1c(-c2ccc3c(c2)OCO3)cnc1NC(=O)CCC(=O)NCCc1ccccc1 | > 42 µM (inactive)
87 | O=c1[nH][nH]c(C(F)(F)F)c1C=NCc1cccs1 | > 42 µM (inactive)
88 | O=C1c2ccccc2S(=O)(=O)N1Cc1cc(=O)n2ccsc2n1 | > 42 µM (inactive)
89 | Cc1cc(C)n(-c2nc3ccccc3nc2N2CCN(C(=O)c3ccccc3)CC2)n1 | > 42 µM (inactive)
90 | CN(C)c1ccc2nc3ccc(=[N+](C)C)cc-3sc2c1 | > 42 µM (inactive)
91 | COc1ccc(CCC(=O)NNC(=S)Nc2cccc(C(C)=O)c2)cc1 | > 42 µM (inactive)
92 | COc1ccccc1OCCCn1cc(C#N)c2ccccc21 | > 42 µM (inactive)
93 | Cc1sc(-n2c(C)cc(C=C3C(=O)NC(=O)NC3=O)c2C)c(C#N)c1C | > 42 µM (inactive)
94 | COc1ccc(-c2[nH]nc3c2C(c2ccncc2)C(C#N)=C(N)O3)cc1 (stereo not drawn) | > 42 µM (inactive)
95 | Cc1nn(CC(=O)Nc2ccccn2)c(C)c1[N+](=O)[O-] | > 42 µM (inactive)
96 | CCOc1ccc(CCNC(=O)COC(=O)c2cccc(OC)c2O)cc1OCC | > 42 µM (inactive)
97 | C=CCNC(=O)NC(=O)COC(=O)CCCSc1nc2ccccc2[nH]1 | > 42 µM (inactive)
98 | O=C(CCCC(=O)N/N=C/c1ccccc1C(=O)O)N/N=C/c1ccccc1C(=O)O | > 42 µM (inactive)
